Blank lines part the entries; values can stand above or below the molecule they belong to.
Tests used:
[1] = molecular target: T1, Soa1 (YIL166C) (Saccharomyces cerevisiae, UniProt P40445); assay: growth rate of sul1 sul2 deletion strain (Monod fit), not direct uptake; assay type: cell-based; details: cell growth constant, not transport Km
T1 construct: full-length, native SOA1 locus, in sulfur-starved S. cerevisiae cells
T1 sequence (P40445 1-542): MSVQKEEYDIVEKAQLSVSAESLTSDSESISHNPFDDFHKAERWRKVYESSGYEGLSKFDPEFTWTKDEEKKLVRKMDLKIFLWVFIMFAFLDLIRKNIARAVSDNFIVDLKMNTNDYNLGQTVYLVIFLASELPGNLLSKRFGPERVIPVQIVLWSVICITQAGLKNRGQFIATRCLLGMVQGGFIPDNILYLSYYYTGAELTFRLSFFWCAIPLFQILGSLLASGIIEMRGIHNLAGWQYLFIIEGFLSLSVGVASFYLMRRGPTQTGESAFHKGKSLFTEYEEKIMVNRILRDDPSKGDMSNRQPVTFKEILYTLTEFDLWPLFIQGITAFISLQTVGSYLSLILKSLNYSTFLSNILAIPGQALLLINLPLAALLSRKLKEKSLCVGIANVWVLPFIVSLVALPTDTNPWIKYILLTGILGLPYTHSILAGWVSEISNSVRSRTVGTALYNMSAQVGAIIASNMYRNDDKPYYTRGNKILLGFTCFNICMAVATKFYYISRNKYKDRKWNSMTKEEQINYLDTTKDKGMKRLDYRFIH

[2] = substrate: O=S(=O)(O)O; assay: radiolabelled uptake in sulfur-starved cells; assay type: cell-based, Aspergillus nidulans; details: pH 6.5 Bis-Tris, 30 °C, 1 min uptake, labelled compound ([35S]), H+ symport, sul1 sul2 soa1 deletion background

Ks (half-velocity constant for growth) ([1]; pH 6.5, sulfite as sole sulfur source): 67.4 ± 8.3 µM
Molecule: O=S(O)O [sulfite]

Ks (half-velocity constant for growth) ([1]; pH 6.5, thiosulfate as sole sulfur source): 75.8 ± 6.0 µM
Molecule: O=S(=O)(O)S [thiosulfate]

B1: AstA (Aspergillus nidulans) (protein)
chain: MADYKSTNPTVENKDDVAVPEYVIDWTLEEETKAKRKLDLMIMPILTLGFFCLQLDRGNMANAITDNFMEDVGINQDQFNVGQQMLSLGIVLTEIPSNMILYRVGPGKWLTLQLFLFGIVSTFQAFQRGYGAFIATRFLLGITESGFIPGGLWTLSTWYTRDETAKRVMIFYFGNQIGQASAKLLAYGILHMRGVGGQSGWFWLFALMGSFTVFSGFIFGFFLLDSFKNPHSTFLPKMSRFTERELHILQTRVLLDDPMKGKKKRKIGLGAFKRAFTDWRIWVHFLITLSNNGPQRAFDTYAPSIVTSFGFGRLVSNAMAAVGLFLQVPVSFAFSWVSDHYNRRGETVMLGFFCHLLGYIFNRTFTDVNLRGVRYFGVVWTQTFGTFSHPLNIAWLSLTCKDSEQRALAMAGVIMNANIAGIYGAQIFRSDDKPLYRRGFSVALSVLAVGLVLAIVRYVDTMIHRRRKLQAVEDGSEQDTDADHKLT
notes: full-length, codon-optimized synthetic gene in SOA1 locus of S. cerevisiae sul1 sul2 soa1 deletion strain
Km [2]: 7.50 ± 0.53 µM
